Measurements published in ChEMBL document CHEMBL4312016, “Amide-sulfamide modulators as effective anti-tumor metastatic agents targeting CXCR4/CXCL12 axis” (Eur J Med Chem, 2020).
Calls of active or inactive are those of the source. The calls are words filed in the database; no cut-off is given here.

How the values were obtained:
MDA-MB-231 [1] = test: Inhibition of fibronectin-induced cell adhesion in human MDA-MB-231 cells at 1 to 10 uM incubated for 6 hrs by inverted microscopy; format: functional, cell-based
HUVEC = test: Antiangiogenic activity in HUVEC assessed as inhibition of tube formation at 10 uM incubated for 4 hrs by matrigel assay; format: functional, cell-based; settings: Homo sapiens
MDA-MB-231 [2] = test: Antimetastatic activity against human MDA-MB-231 cells xenografted in BALB/c mouse assessed as reduction in lung metastatic nodules at 20 mg/kg, ip administered twice a day for 2 weeks and measured on day 14; format: functional, organism-based
MDA-MB-231 [3] = test: Antimetastatic activity against human MDA-MB-231 cells xenografted in BALB/c mouse assessed as reduction in lung metastasis at 20 mg/kg, ip administered twice a day for 2 weeks and measured on day 14 relative to control; format: functional; settings: MDA-MB-231, ip, 336 h
MDA-MB-231 [4] = test: Inhibition of metastasis in human MDA-MB-231 cells assessed as decrease in P70S6K expression at 10 uM incubated for 24 hrs by Western blot analysis; format: functional, cell-based
MDA-MB-231 [5] = test: Inhibition of cell migration in human MDA-MB-231 cells at 10 uM incubated for 24 hrs by inverted microscopy; format: functional, cell-based
MDA-MB-231 [6] = test: Inhibition of cell migration in human MDA-MB-231 cells incubated for 24 hrs by inverted microscopy; format: functional, cell-based
[7] = target: C-X-C chemokine receptor type 4 (Homo sapiens) (UniProt P61073); test: Inhibition of CXCR4-mediated chemotaxis in human MDA-MB-231 cells assessed as reduction in CXCL12alpha-induced cell invasion after 22 hrs by hematoxylin/eosin dye-based matrigel assay relative to control; set-up: concentration or dose not given beside the values; settings: concentration not given here
MDA-MB-231 [8] = test: Inhibition of metastasis in human MDA-MB-231 cells assessed as decrease in p-mTOR expression at 10 uM incubated for 24 hrs by Western blot analysis; format: functional, cell-based
[9] = target: C-X-C chemokine receptor type 4 (Homo sapiens) (UniProt P61073); test: Competitive binding affinity at CXCR4 in human MDA-MB-231 cells preincubated for 10 mins followed by biotinylated TN14003 addition further incubated for 30 mins by fluorescence microscopy; format: cell-based
[10] = Toxicity in BALB/c mouse xenografted with human MDA-MB-231 cells assessed as effect on body weight at 20 mg/kg, po administered twice a day for 2 weeks; format: organism-based; settings: in vivo, 336 h
MDA-MB-231 [11] = test: Inhibition of metastasis in human MDA-MB-231 cells assessed as decrease in p-4E-BP1 expression at 10 uM incubated for 24 hrs by Western blot analysis; format: functional, cell-based
[12] = target: C-X-C chemokine receptor type 4 (Homo sapiens) (UniProt P61073); test: Inhibition of CXCR4-mediated chemotaxis in human MDA-MB-231 cells assessed as reduction in CXCL12alpha-induced cell invasion after 22 hrs by hematoxylin/eosin dye-based matrigel assay

C-X-C chemokine receptor type 4 (Homo sapiens), sequence (P61073 whole entry): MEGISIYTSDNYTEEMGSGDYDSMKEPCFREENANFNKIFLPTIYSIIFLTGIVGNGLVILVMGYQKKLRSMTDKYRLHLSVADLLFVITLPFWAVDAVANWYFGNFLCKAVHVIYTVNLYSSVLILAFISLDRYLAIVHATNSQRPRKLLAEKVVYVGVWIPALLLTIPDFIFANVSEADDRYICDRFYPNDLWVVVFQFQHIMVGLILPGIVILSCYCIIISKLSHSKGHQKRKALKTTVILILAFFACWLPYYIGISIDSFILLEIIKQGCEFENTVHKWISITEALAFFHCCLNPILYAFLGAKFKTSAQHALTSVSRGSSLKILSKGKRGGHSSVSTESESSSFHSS

SMILES	EC [9]	also measured
O=C(NCc1ccc(CNS(=O)(=O)c2ccc(F)cc2)cc1)c1cccnc1	100 nM	inhibition (MDA-MB-231 [1]): Active; inhibition (HUVEC): Active; Activity (MDA-MB-231 [2]): Active; inhibition in vivo at 20 mg/kg (MDA-MB-231 [3]): 43%; inhibition (MDA-MB-231 [4]): Active; inhibition (MDA-MB-231 [5]): Active; inhibition (MDA-MB-231 [6]): Dose-dependent effect; inhibition [7]: 92%; inhibition (MDA-MB-231 [8]): Active; Activity [10]: Non-Toxic; inhibition (MDA-MB-231 [11]): Active
O=C(NCc1ccc(CNS(=O)(=O)c2cccc(F)c2)cc1)c1cccnc1	1000 nM	–
O=C(NCc1ccc(CNS(=O)(=O)c2cccc3ccccc23)cc1)c1cccnc1	1000 nM	–
O=C(NCc1ccc(CNS(=O)(=O)c2ccccc2Cl)cc1)c1cccnc1	100 nM	inhibition (MDA-MB-231 [1]): Active; inhibition (HUVEC): Active; inhibition (MDA-MB-231 [5]): Active; inhibition [7]: 96%
Cc1ccccc1C(=O)NCc1ccc(CNS(=O)(=O)c2ccccc2F)cc1	1000 nM	–
Cc1cccc(S(=O)(=O)NCc2ccc(CNC(=O)c3ccccc3C)cc2)c1	1000 nM	–
COc1ccccc1C(=O)NCc1ccc(CNS(=O)(=O)c2ccc(F)cc2)cc1	100 nM	–
COc1ccccc1C(=O)NCc1ccc(CNS(=O)(=O)c2ccc([N+](=O)[O-])cc2)cc1	100 nM	–
Cc1ccccc1C(=O)NCc1ccc(CNS(=O)(=O)c2ccc([N+](=O)[O-])cc2)cc1	100 nM	–
COc1ccccc1C(=O)NCc1ccc(CNS(=O)(=O)c2ccc(Cl)cc2)cc1	1000 nM	–
O=C(NCc1ccc(CNS(=O)(=O)c2cccc(Cl)c2)cc1)c1cccnc1	100 nM	–
Cc1ccccc1C(=O)NCc1ccc(CNS(=O)(=O)c2cccc(F)c2)cc1	100 nM	–
Cc1ccccc1C(=O)NCc1ccc(CNS(=O)(=O)c2cccc(Cl)c2)cc1	100 nM	inhibition (MDA-MB-231 [1]): Active; inhibition (MDA-MB-231 [5]): Active; inhibition [7]: 99%
O=C(NCc1ccc(CNS(=O)(=O)c2ccc(Cl)cc2)cc1)c1cccnc1	1000 nM	–
Cc1ccccc1C(=O)NCc1ccc(CNS(=O)(=O)c2ccccc2Cl)cc1	1000 nM	–
COc1ccccc1C(=O)NCc1ccc(CNS(=O)(=O)c2cccc(F)c2)cc1	1000 nM	–
Cc1ccccc1C(=O)NCc1ccc(CNS(=O)(=O)c2ccccc2C)cc1	10 nM	inhibition (MDA-MB-231 [1]): Active; inhibition (HUVEC): Active; inhibition (MDA-MB-231 [5]): Active; inhibition [7]: 99%
O=C(NCc1ccc(CNS(=O)(=O)c2ccccc2F)cc1)c1cccnc1	100 nM	–
Cc1cccc(S(=O)(=O)NCc2ccc(CNC(=O)c3cccnc3)cc2)c1	10 nM	–
Cc1ccccc1C(=O)NCc1ccc(CNS(=O)(=O)c2cccc3ccccc23)cc1	100 nM	–
Cc1ccccc1C(=O)NCc1ccc(CNS(=O)(=O)c2ccc(Cl)cc2)cc1	1 nM	–
Cc1ccccc1C(=O)NCc1ccc(CNS(=O)(=O)c2ccc(F)cc2)cc1	10 nM	–
COc1ccccc1C(=O)NCc1ccc(CNS(=O)(=O)c2ccccc2Cl)cc1	100 nM	inhibition (MDA-MB-231 [1]): Active; inhibition (MDA-MB-231 [5]): Active; inhibition [7]: 99%
Cc1ccccc1S(=O)(=O)NCc1ccc(CNC(=O)c2cccnc2)cc1	1000 nM	–
COc1ccccc1C(=O)NCc1ccc(CNS(=O)(=O)c2ccccc2C)cc1	1000 nM	–
COc1ccccc1C(=O)NCc1ccc(CNS(=O)(=O)c2cccc(C)c2)cc1	1000 nM	–
COc1ccccc1C(=O)NCc1ccc(CNS(=O)(=O)c2cccc3ccccc23)cc1	> 1000 nM	–
O=C(NCc1ccc(CNS(=O)(=O)c2ccc([N+](=O)[O-])cc2)cc1)c1cccnc1	100 nM	inhibition [12]: inactive
COc1ccccc1C(=O)NCc1ccc(CNS(=O)(=O)c2ccccc2F)cc1	1 nM	inhibition [12]: inactive
COc1ccccc1C(=O)NCc1ccc(CNS(=O)(=O)c2cccc(Cl)c2)cc1	1000 nM	–
